Consider 21 compounds from patent publication US20060211698A1, “Bicyclic heteroaryl derivatives for treating viruses” (Genelabs, Inc., priority 2005, published 2006).

Each structure is given as a SMILES string.

The target of the assay is T1, HCV-NS5b (Hepatitis C virus genotype 1b, UniProt Q9WMX2).
T1 construct: The cloned fragment was missing the C terminus 21 amino acid residues; (His)6 (C); made in house; host or cells: XL-1 cells (E. coli)
Put plainly: HCV-NS5b Enzyme Assay. Format: biochemical. The conditions noted are these: 1 μM test compound; incorporation of [3H]-UTP, 37° C., 2 hours. The method, boiled down: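 The NS5B construct lacks its C-terminal 21 residues, carries a C-terminal His6 tag and was expressed in E. coli. [^3H]-UTP incorporation on a biotinylated HCV heteropolymeric template (10 ng/μL) with 10 μM each NTP, pH 7.5, 5 mM MgCl2 and 5% DMSO ran 2 h at 37° C and was read by SPA scintillation. IC50s came from 10-point 2-fold series starting at 50 or 2 μM.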
Usually inhibition stands for the relative decrease from the control value, in per cent. High values mean a response far below the control, low ones a response near the control. On to `O=C(O)c1ccc2c(C3CCCCC3)c(-c3ccc4ncc(-c5ccccc5)nc4c3)n(CC(=O)N3CCOCC3)c2c1` [Compound 329, 3-Cyclohexyl-1-(2-morpholin-4-yl-2-oxo-ethyl)-2-(3-phenyl-quinoxalin-6-yl)-1H-indole-6-carboxylic acid], for which at 1 µM the inhibition was 99.8%. `Cc1nc(C)c(-c2ccc3cc(-c4c(C5CCCCC5)c5ccc(C(=O)O)cc5n4CC(=O)N(C)C)ccc3n2)s1` [Compound 212, 1-[N,N-dimethylaminocarbonyl-methyl]-2-[2-(2,4-dimethylthiazol-5-yl)-quinolin-6-yl]-3-cyclohexyl-1H-indole-6-carboxylic acid]: testing at 1 µM gave an inhibition of 96.8%. Still for that read-out and setting: to `Cc1cc(Cn2c(-c3ccc4nc(-c5sc(C)nc5C)ccc4c3)c(C3CCCCC3)c3ccc(C(=O)O)cc32)no1` [Compound 291, 3-Cyclohexyl-2-[2-(2,4-dimethyl-thiazol-5-yl)-quinolin-6-yl]-1-(5-methyl-isoxazol-3-ylmethyl)-1H-indole-6-carboxylic acid] belongs 96.4%; to `Cc1nc(C(F)(F)F)sc1-c1ccc2cc(-c3c(C4CCCCC4)c4ccc(C(=O)O)cc4n3CC(=O)N3CCOCC3)ccc2n1` [Compound 248, 3-Cyclohexyl-2-[2-(4-methyl-2-trifluoromethyl-thiazol-5-yl)-quinolin-6-yl]-1-(2-morpholin-4-yl-2-oxo-ethyl)-1H-indole-6-carboxylic acid], 95.2%. The same measure, in the same setting: to `COc1ccc(-c2ccc3cc(-c4c(C5CCCCC5)c5ccc(C(=O)O)cc5n4CC(=O)N4CCOCC4)ccc3n2)cc1F` [Compound 273, 3-Cyclohexyl-2-[2-(3-fluoro-4-methoxy-phenyl)-quinolin-6-yl]-1-(2-morpholin-4-yl-2-oxo-ethyl)-1H-indole-6-carboxylic acid] belongs 99.4%. `Cc1ccc(-c2ccc3cc(-c4c(C5CCCCC5)c5ccc(C(=O)O)cc5n4CC(=O)N4CCOCC4)ccc3n2)o1` [Compound 223]: the “% inhibition @ 1 μM” value amounted to 95.1%. Consider `Cc1ccc(-c2ccc3cc(-c4c(C5CCCCC5)c5ccc(C(=O)O)cc5n4CC(=O)N4CCOCC4)ccc3n2)cc1C` [Compound 250, 3-Cyclohexyl-2-[2-(3,4-dimethyl-phenyl)-quinolin-6-yl]-1-(2-morpholin-4-yl-2-oxo-ethyl)-1H-indole-6-carboxylic acid], for which the inhibition at 1 µM came out at 99.9%. Still for that read-out and setting: then `COc1ccccc1-c1ccc2cc(-c3c(C4CCCCC4)c4ccc(C(=O)O)cc4n3CC(=O)N3CCOCC3)ccc2n1` [Compound 233, 3-Cyclohexyl-2-[2-(2-methoxy-phenyl)-quinolin-6-yl]-1-(2-morpholin-4-yl-2-oxo-ethyl)-1H-indole-6-carboxylic acid], with 95.7%; and `O=C(O)c1ccc2c(C3CCCCC3)c(-c3ccc4cc(-c5ccccc5F)ccc4c3)n(CC(=O)N3CCOCC3)c2c1` [Compound 322, 3-Cyclohexyl-2-[6-(2-fluoro-phenyl)-naphthalen-2-yl]-1-(2-morpholin-4-yl-2-oxo-ethyl)-1H-indole-6-carboxylic acid], with 95.1%. As to `Cc1nc(C)c(-c2ccc3cc(-c4c(C5CCCCC5)c5ccc(C(=O)O)cc5n4CC(=O)N4CCC(N5CCOCC5)CC4)ccc3n2)s1` [Compound 278, 3-Cyclohexyl-2-[2-(2,4-dimethyl-thiazol-5-yl)-quinolin-6-yl]-1-[2-(4-morpholin-4-yl-piperidin-1-yl)-2-oxo-ethyl]-1H-indole-6-carboxylic acid], the inhibition at 1 µM was 91.8%. Turning to `Cc1nc(C)c(-c2ccc3cc(-c4c(C5CCCCC5)c5ccc(C(=O)O)cc5n4CC(=O)N4CCC(O)CC4)ccc3n2)s1` [Compound 236, 3-Cyclohexyl-2-[2-(2,4-dimethyl-thiazol-5-yl)-quinolin-6-yl]-1-[2-(4-hydroxy-piperidin-1-yl)-2-oxo-ethyl]-1H-indole-6-carboxylic acid], the inhibition at 1 µM is 92.5%.

`Cc1noc(C)c1-c1ccc(-c2c(C3CCCCC3)c3ccc(C(=O)O)cc3n2CC(=O)N2CCOCC2)cc1` [Compound 317, 3-Cyclohexyl-2-[4-(3,5-dimethyl-isoxazol-4-yl)-phenyl]-1-(2-morpholin-4-yl-2-oxo-ethyl)-1H-indole-6-carboxylic acid] displayed an inhibition at 1 µM of 96.7%. Regarding `O=C(O)c1ccc2c(C3CCCCC3)c(-c3ccc4nc(-c5ccc[nH]5)ccc4c3)n(CC(=O)N3CCOCC3)c2c1` [Compound 219, 1-[N-morpholinocarbonylmethyl]-2-[2-(pyrrol-2-yl)-quinolin-6-yl]-3-cyclohexyl-1H-indole-6-carboxylic acid], the “% inhibition @ 1 μM” value stood at 96.0%. Still for that read-out and setting: to `O=C(O)c1ccc2c(C3CCCCC3)c(-c3ccc4nc(-c5nccs5)ccc4c3)n(CC(=O)N3CCOCC3)c2c1` [Compound 227, 1-[N-morpholinocarbonylmethyl]-2-[2-thiazol-2-ylquinolin-6-yl]-3-cyclohexyl-1H-indole-6-carboxylic acid] belongs 98.4%. For `COc1ccc(-c2ccc(Cl)cc2)c(-c2ccc3cc(-c4c(C5CCCCC5)c5ccc(C(=O)O)cc5n4CC(=O)N4CCC(N5CCCC5)CC4)ccc3n2)c1` [Compound 205, 1-[(4-pyrrolidin-1-yl-piperidin-1-yl)carbonylmethyl]-2-[2-(4′-chloro-4-methoxy-biphen-2-yl)-quinolin-6-yl]-3-cyclohexyl-1H-indole-6-carboxylic acid], the inhibition at 1 µM is 97%. The compound `Cc1nc(C)c(-c2ccc3cc(-c4c(C5CCCCC5)c5ccc(C(=O)O)cc5n4Cc4ccc(C(=O)O)cc4)ccc3n2)s1` [Compound 292, 1-(4-Carboxy-benzyl)-3-cyclohexyl-2-[2-(2,4-dimethyl-thiazol-5-yl)-quinolin-6-yl]-1H-indole-6-carboxylic acid] had an inhibition at 1 µM of 98.7%.

On to `O=C(O)c1ccc2c(C3CCCCC3)c(-c3ccc4nc(-c5ccc(F)cc5)ccc4c3)n(CC(=O)N3CCOCC3)c2c1` [Compound 265, 3-Cyclohexyl-2-[2-(4-fluoro-phenyl)-quinolin-6-yl]-1-(2-morpholin-4-yl-2-oxo-ethyl)-1H-indole-6-carboxylic acid], for which the inhibition at 1 µM stood at 96.3%. With `Cc1ccccc1-c1ccc2cc(-c3c(C4CCCCC4)c4ccc(C(=O)O)cc4n3CC(=O)N3CCOCC3)ccc2n1` [Compound 232, 3-Cyclohexyl-1-(2-morpholin-4-yl-2-oxo-ethyl)-2-(2-o-tolyl-quinolin-6-yl)-1H-indole-6-carboxylic acid], the inhibition at 1 µM stood at 97.5%. Same read-out and setting: then `O=C(O)c1ccc2c(C3CCCCC3)c(-c3ccc4nc(-c5cccc(OC(F)(F)F)c5)ccc4c3)n(CC(=O)N3CCOCC3)c2c1` [Compound 246, 3-Cyclohexyl-1-(2-morpholin-4-yl-2-oxo-ethyl)-2-[2-(3-trifluoromethoxy-phenyl)-quinolin-6-yl]-1H-indole-6-carboxylic acid], with 96.9%; and `Nc1cccc(-c2ccc3cc(-c4c(C5CCCCC5)c5ccc(C(=O)O)cc5n4CC(=O)N4CCOCC4)ccc3n2)c1` [Compound 264, 2-[2-(3-Amino-phenyl)-quinolin-6-yl]-3-cyclohexyl-1-(2-morpholin-4-yl-2-oxo-ethyl)-1H-indole-6-carboxylic acid], with 93%.

Turning to `O=C(O)c1ccc2c(C3CCCCC3)c(-c3ccc(-c4ccc5ccccc5n4)cc3)n(CC(=O)N3CCOCC3)c2c1` [Compound 326, 3-Cyclohexyl-1-(2-morpholin-4-yl-2-oxo-ethyl)-2-(4-quinolin-2-yl-phenyl)-1H-indole-6-carboxylic acid], the inhibition at 1 µM is 99.8%.
